Data reported in paper PMC8621208, “Antiseptic 9-Meric Peptide with Potency against Carbapenem-Resistant Acinetobacter baumannii Infection” (International Journal of Molecular Sciences, 2021).
In brackets after ≈: the same amount, converted by molar mass. Where two headings read alike, the source gives them in different places.

Experiments:
E. coli = assay: MIC, broth dilution; format: cell-based, Escherichia coli KCTC 1682; conditions: Escherichia coli, 16 h, read-out: Minimal Inhibitory Concentration (MIC)
Description: (§1) Escherichia coli KCTC 1682 was obtained from the Korean Collection for Type Cultures (KCTC) (Jeongeup-si, Korea), Acinetobacter baumannii KCCM 40203, Pseudomonas aeruginosa KCCM 11328 from the Korea Culture Center of Microorganisms (KCCM) (Seoul, Korea). Klebsiella pneumoniae NCCP 16054 were obtained from the National Culture Collection for Pathogens (NCCP) (Osong, Korea). Additionally, two carbapenem-resistant E. coli (CREC E1 and E2), 11 carbapenem-resistant A. baumannii (CRAB C0–C10) and two carbapenem-resistant K. pneumoniae (CRKP K1 and K2) were isolated from the patients, who presented symptoms and signs of infection at Korea University Anam Hospital (Seoul, Korea) (IRB registration no. 2020AN0157, 4 March 2021). CRAB C0–C10 have the OXA-23 gene with carbapenem-resistance.
(§2) The minimum inhibitory concentrations (MIC) were determined using broth dilution method. Briefly, all the mentioned bacterial strains were grown overnight at 37 °C by Muller–Hinton (MH) media. […] After 16 h incubation, the bacterial growth was read at 600 nm using a SpectraMAX microplate reader (Molecular Devices, San Jose, CA, USA).

A. baumannii = assay: MIC, broth dilution; format: cell-based, Acinetobacter baumannii KCCM 40203; conditions: 16 h, MH media, read-out: Minimal Inhibitory Concentration (MIC)
Description: as §1, §2

P. aeruginosa = assay: MIC, broth dilution; format: cell-based, Pseudomonas aeruginosa KCCM 11328; conditions: Pseudomonas aeruginosa, 16 h, MH media, read-out: Minimal Inhibitory Concentration (MIC)
Description: as §1, §2

CREC E1 = assay: MIC, broth dilution; format: cell-based, carbapenem-resistant E. coli; conditions: read-out: Minimal Inhibitory Concentration (MIC)
Description: as §1, §2

CREC E2 = assay: MIC, broth dilution; format: cell-based, carbapenem-resistant E. coli; conditions: read-out: Minimal Inhibitory Concentration (MIC)
Description: as §1, §2

CRAB C0 [1] = assay: MIC, broth dilution; format: cell-based, carbapenem-resistant A. baumannii; conditions: read-out: Minimal Inhibitory Concentration (MIC)
Description: as §1, §2

CRAB C10 = assay: MIC, broth dilution; format: cell-based, carbapenem-resistant A. baumannii; conditions: read-out: Minimal Inhibitory Concentration (MIC)
Description: as §1, §2

CRAB C2 = assay: MIC, broth dilution; format: cell-based, carbapenem-resistant A. baumannii; conditions: read-out: Minimal Inhibitory Concentration (MIC)
Description: as §1, §2

CRAB C3 = assay: MIC, broth dilution; format: cell-based, carbapenem-resistant A. baumannii; conditions: read-out: Minimal Inhibitory Concentration (MIC)
Description: as §1, §2

CRAB C4 = assay: MIC, broth dilution; format: cell-based, carbapenem-resistant A. baumannii; conditions: read-out: Minimal Inhibitory Concentration (MIC)
Description: as §1, §2

CRAB C5 = assay: MIC, broth dilution; format: cell-based, carbapenem-resistant A. baumannii; conditions: read-out: Minimal Inhibitory Concentration (MIC)
Description: as §1, §2

CRAB C6 = assay: MIC, broth dilution; format: cell-based, carbapenem-resistant A. baumannii; conditions: read-out: Minimal Inhibitory Concentration (MIC)
Description: as §1, §2

CRAB C7 = assay: MIC, broth dilution; format: cell-based, carbapenem-resistant A. baumannii; conditions: read-out: Minimal Inhibitory Concentration (MIC)
Description: as §1, §2

CRAB C9 = assay: MIC, broth dilution; format: cell-based, carbapenem-resistant A. baumannii; conditions: read-out: Minimal Inhibitory Concentration (MIC)
Description: as §1, §2

CRAB C1 = assay: microbe, parasite or virus in culture; conditions: for MIC: Acinetobacter baumannii, read-out: Minimal Inhibitory Concentration (MIC)
Description: as §1, §2

CRAB C8 = assay: microbe, parasite or virus in culture; conditions: for MIC: Acinetobacter baumannii, read-out: Minimal Inhibitory Concentration (MIC)
Description: as §1, §2

K. pneumoniae = assay: microbe, parasite or virus in culture; conditions: 16 h; for MIC: Klebsiella pneumoniae, read-out: Minimal Inhibitory Concentration (MIC)
Description: as §1, §2

CRKP K1 = assay: MIC, broth dilution; format: cell-based, carbapenem-resistant K. pneumoniae; conditions: read-out: Minimal Inhibitory Concentration (MIC)
Description: as §1, §2

CRKP K2 = assay: MIC, broth dilution; format: cell-based, carbapenem-resistant K. pneumoniae; conditions: read-out: Minimal Inhibitory Concentration (MIC)
Description: as §1, §2

[2] = test system: standard Gram-negative bacteria and carbapenem-resistant Gram-negative bacteria; assay: Mean MIC over all bacterial strains (GM) and selective index; format: cell-based; conditions: read-out: GM (geometric mean of MIC values of all bacterial strains)
Description: as §2

CRAB C0 [3] = assay: Biofilm assay, crystal violet staining; format: cell-based, carbapenem-resistant A. baumannii; conditions: 16 h
Description: Figure 4 Pro9-3 and its analogs have biofilm inhibition properties against CRAB. The antibiofilm activities of peptides (0–32 μM, 16 h) on (A) A. baumannii and (B) CRAB C0 strains were measured by crystal violet staining and the number of attached cells were read at 595 nm. Melittin, meropenem and imipenem were used as a control. Data are shown as the mean ± SEM (n = 3) and are statistically significant at * p < 0.05; *** p < 0.001; ns, not significant (two-way analysis of variance (ANOVA) with Dunnett’s comparison test).
The effects of peptides on biofilm inhibition of A. baumannii and CRAB C0 strains were performed as described previously. […] After treatment, bacterial cells were fixed with methanol (100%, 15 min) followed by crystal violet staining (0.1% (w/v) in 0.25% (v/v) acetic acid for 1 h). The plates were washed with distilled H2O, allowed to dry, and dissolved in ethanol (100% v/v). The color development representing the degree of biofilm was measured at 595 nm.

LPS (E. coli O111:B4) = assay: Peptide-LPS binding, BODIPY-TR-cadaverine displacement assay; conditions: 4 μM
Description: The binding abilities of the peptides with LPS was analyzed by BODIPY-TR cadaverine (BC, Thermo Fisher Scientific, Waltham, MA, USA)-displacement assay. The probe complex was prepared by mix 5 μg/mL BC with 5 μg/mL LPS (E. coli O111:B4, Sigma-Aldrich, St. Louis, MO, USA) in a 50 mM Tris buffer (pH 7.4) at room temperature for 6 h. Peptides including polymyxin B (PMB) control (1–64 μM) were allowed to interact with LPS–BC mix in a black 96-well plate for 30 min. The relative fluorescence intensity was recorded at an excitation wavelength of 580 nm and emission wavelength of 620 nm using a fluorescence microplate reader (Molecular Devices, San Jose, CA, USA).

intact CRAB C0 = assay: Depolarization of intact CRAB C0 (diSC3-5); format: cell-based, carbapenem-resistant A. baumannii; conditions: 4 μM
Description: (§3) The depolarization capacity by peptides were measured by using a membrane potential sensitive dye 3,3′-dipropylthiadicarbocyanine iodide (diSC3-5) as previously described using intact CRAB C0. Briefly, CRAB C0 cells were washed using wash buffer (5 mM HEPES, 20 mM glucose, pH 7.4). The cells were resuspended in dilution buffer (5 mM HEPES, 20 mM glucose, 0.1 M KCl, pH 7.4) and then incubated with diSC3-5 dye (1 h). In parallel, spheroplasts of CRAB C0 cells (contains plasma membrane and peptidoglycans) were prepared by damaging outer membrane using osmotic shock, as described previously. Finally, varying concentrations of peptide treated cells, negative control (cells with dye) and positive control (1% triton X-100) were recorded for change in fluorescence using fluorescent spectrophotometer and expressed as percent depolarization.

CRAB C0 spheroplasts = assay: Cytoplasmic membrane depolarization of CRAB C0 spheroplasts (diSC3-5); format: cell-based, carbapenem-resistant A. baumannii; conditions: 4 μM
Description: as §3

LPS = assay: Limulus amebocyte lysate (LAL) assay, LPS neutralization; format: biochemical; conditions: 1.6 μM
Description: Peptide-mediated LPS neutralization was determined using LAL assay (GenScript, Piscataway, NJ, USA). Briefly, peptides 10 μL each (3.1, 6.3, 12.5, 25, and 50 μM) were allowed to interact with LPS (2 ng/mL) for 10 min at 37 °C. LL-37 was used as a control. A LAL enzyme (10 μL) was added to peptide-LPS complex for 10 min followed by addition of a chromogenic substrate (5 min, 37 °C). The reaction was stopped using color substrates and the absorbance was measured at 545 nm against endotoxin standard. The endotoxin levels are expressed as endotoxin units (EU) per milliliter.

Compound | MIC (A. baumannii; Acinetobacter baumannii) | MIC (P. aeruginosa) | MIC (CREC E1; Escherichia coli) | MIC (CREC E2; Escherichia coli) | MIC (CRAB C0 [1]; Acinetobacter baumannii) | MIC (CRAB C10; Acinetobacter baumannii) | MIC (CRAB C2; Acinetobacter baumannii) | MIC (CRAB C3; Acinetobacter baumannii) | MIC (CRAB C4; Acinetobacter baumannii) | MIC (CRAB C5; Acinetobacter baumannii) | MIC (CRAB C6; Acinetobacter baumannii) | MIC (CRAB C7; Acinetobacter baumannii) | MIC (CRAB C9; Acinetobacter baumannii) | MIC (CRAB C1) | MIC (CRAB C8) | MIC (K. pneumoniae) | MIC (CRKP K1; Klebsiella pneumoniae) | MIC (CRKP K2; Klebsiella pneumoniae) | MIC [2] | Biofilm inhibition of CRAB C0 (CRAB C0 [3]) | other results
C[C@@H](O)[C@H]1C(=O)N2C(C(=O)O)=C(SCCN=CN)C[C@H]12 [Imipenem, reference compound] | 1 µM (≈ 0.299 µg/mL) | 1 µM (≈ 0.299 µg/mL) | > 128 µM | 16 µM (≈ 4.79 µg/mL) | > 128 µM | > 128 µM | > 128 µM | 128 µM (≈ 38.3 µg/mL) | 128 µM (≈ 38.3 µg/mL) | 128 µM (≈ 38.3 µg/mL) | 128 µM (≈ 38.3 µg/mL) | 128 µM (≈ 38.3 µg/mL) | > 128 µM | > 128 µM | > 128 µM | < 0.25 µM | 32 µM (≈ 9.58 µg/mL) | > 128 µM | 90.3 µM (≈ 27 µg/mL) | unable to inhibit | MIC (E. coli): 0.5 µM (≈ 0.15 µg/mL)
polymyxin B [PMB] |  |  |  |  |  |  |  |  |  |  |  |  |  |  |  |  |  |  |  |  | BC displacement (LPS binding) (LPS (E. coli O111:B4)): 76.6%
CC[C@H](C)[C@H](NC(=O)CN)C(=O)NCC(=O)N[C@@H](C)C(=O)N[C@H](C(=O)N[C@@H](CC(C)C)C(=O)N[C@@H](CCCCN)C(=O)N[C@H](C(=O)N[C@@H](CC(C)C)C(=O)N[C@H](C(=O)N[C@H](C(=O)NCC(=O)N[C@@H](CC(C)C)C(=O)N1CCC[C@H]1C(=O)N[C@@H](C)C(=O)N[C@@H](CC(C)C)C(=O)N[C@H](C(=O)N[C@@H](CO)C(=O)N[C@@H](Cc1c[nH]c2ccccc12)C(=O)N[C@H](C(=O)N[C@@H](CCCCN)C(=O)N[C@@H](CCCNC(=N)N)C(=O)N[C@@H](CCCCN)C(=O)N[C@@H](CCCNC(=N)N)C(=O)N[C@@H](CCC(N)=O)C(=O)N[C@@H](CCC(N)=O)C(N)=O)[C@@H](C)CC)[C@@H](C)CC)[C@@H](C)O)[C@@H](C)O)C(C)C)C(C)C [Melittin, reference compound] |  |  |  |  |  |  |  |  |  |  |  |  |  |  |  |  |  |  |  |  | MIC (A. baumannii): 4 µM (≈ 11.4 µg/mL); MIC (CREC E1): 8 µM (≈ 22.8 µg/mL); MIC (CREC E2): 8 µM (≈ 22.8 µg/mL); MIC (CRAB C0 [1]): 4 µM (≈ 11.4 µg/mL); MIC (CRAB C10): 4 µM (≈ 11.4 µg/mL); MIC (CRAB C2): 4 µM (≈ 11.4 µg/mL); MIC (CRAB C3): 4 µM (≈ 11.4 µg/mL); MIC (CRAB C4): 4 µM (≈ 11.4 µg/mL); MIC (CRAB C5): 4 µM (≈ 11.4 µg/mL); MIC (CRAB C6): 4 µM (≈ 11.4 µg/mL); MIC (CRAB C7): 4 µM (≈ 11.4 µg/mL); MIC (CRAB C9): 4 µM (≈ 11.4 µg/mL); Minimal Inhibitory Concentration (MIC) (CRAB C1; CRAB C1): 4 µM; Minimal Inhibitory Concentration (MIC) (CRAB C8; CRAB C8): 4 µM; Minimal Inhibitory Concentration (MIC) (K. pneumoniae; K. pneumoniae, MH media): 32 µM; MIC (CRKP K1): 64 µM (≈ 182 µg/mL); MIC (CRKP K2): 64 µM (≈ 182 µg/mL); Depolarization of intact CRAB (diSC3-5) (intact CRAB C0): 75.6%; Increase of diSC3-5 fluorescence in CRAB spheroplasts (depolarization) (CRAB C0 spheroplasts): 67.9%
LL-37 |  |  |  |  |  |  |  |  |  |  |  |  |  |  |  |  |  |  |  |  | LPS neutralization (LAL assay) (LPS): 76.5%
C[C@@H](O)[C@H]1C(=O)N2C(C(=O)O)=C(S[C@@H]3CN[C@H](C(=O)N(C)C)C3)[C@H](C)[C@H]12 [Meropenem, reference compound] | 0.5 µM (≈ 0.192 µg/mL) | 1 µM (≈ 0.383 µg/mL) | > 128 µM | 16 µM (≈ 6.14 µg/mL) | 128 µM (≈ 49.1 µg/mL) | > 128 µM | 128 µM (≈ 49.1 µg/mL) | 128 µM (≈ 49.1 µg/mL) | > 128 µM | > 128 µM | > 128 µM | 128 µM (≈ 49.1 µg/mL) | > 128 µM | > 128 µM | > 128 µM | < 0.25 µM | 64 µM (≈ 24.5 µg/mL) | > 128 µM | 91.9 µM (≈ 35.2 µg/mL) | unable to inhibit | MIC (E. coli; E. coli, MH media): 0.25 µM (≈ 0.0959 µg/mL)
